{"source": "patent US8815778B2", "about": "“PH modulation method to detect ligand-receptor binding” (The Texas A&M University System, priority 2008, dated 2014)", "key": {"[1]": {"conditions": "cited from earlier work; for τ0 (fluorescence lifetime): dye concentrations of about 10^−7 M; for φb (quantum yield of photobleaching) / μ (mean number of survived excitation cycles): in water at low irradiances; for μ (mean number of survived excitation cycles): μ calculated from φb"}, "avidin": {"target": "avidin (Gallus gallus, UniProt P02701)", "sequence (P02701 25-152, species assumed)": "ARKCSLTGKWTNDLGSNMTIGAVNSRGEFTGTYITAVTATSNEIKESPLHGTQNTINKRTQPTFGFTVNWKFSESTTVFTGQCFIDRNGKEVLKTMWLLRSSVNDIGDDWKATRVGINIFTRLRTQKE", "experiment": "Homogeneous pH modulation assay in capillary tubes with Texas Red succinimidyl ester conjugated avidin", "format": "binding", "conditions": "for fluorescence intensity versus capillary without ligand: 3 μM ortho-Texas Red succinimidyl ester conjugated avidin, PBS pH 7.0", "source_text": "The pH modulation detection assay is amenable monitoring protein-small molecule and protein-protein interactions homogeneously in aqueous solution.\nAvidin was labeled with Texas Red® succinimidyl ester as follows: The ortho isomer of Texas Red® succinimidyl ester was separated from the para isomer via thin layer chromatography utilizing silica plates (TLC Silica Gel 60 F254, EMD Chemicals) and 8:92 (methanol:chloroform) solvent. The separated band was removed from the plates with a razor and the ortho-Texas Red® succinimidyl ester was eluted from the silica with the same methanol/chloroform solvent. The dye (21 μg) was dried down with nitrogen in a 2 mL reactive vial containing a magnetic stir bar. To this reaction vial was added 0.5 mL of a 2 mg/mL avidin solution in 1 M sodium bicarbonate. This solution was allowed to stir for two hours at room temperature before being separated in a column containing Bio-Rad BioGel® Fine size purification resin in phosphate buffered saline (PBS, 10 mM potassium phosphate, 150 mM NaCl, 2 mM sodium azide, pH 7.2). This PBS was utilized as the elution buffer as well. The collected Texas-Red® succinimidyl ester-labeled avidin was utilized in the sensing experiments.\nThe two rectangular capillaries were passivated with a surface coating of bovine serum albumin (BSA). The BSA was then thoroughly rinsed away with phosphate buffered saline (10 mM Na2HPO4, 150 mM NaCl, pH 7.0). Next, a 3 μM solution of ortho-Texas Red® succinimidyl ester conjugated avidin was introduced in PBS into both capillaries. The right capillary additionally contained a 200 μM concentration of biotin (vitamin B7). A line scan across the micrograph is shown on the right. […] It should be noted that avidin is a positively charged protein and the biotin is […] in solution near pH 7.0. Therefore, the local pH near the protein surface is lowered when the small molecule binds.\nAs a control, the same set of experiments was run as in FIG. 38. However, this time the avidin was conjugated with para-Texas Red® succinimidyl ester (FIG. 39). […]"}, "[2]": {"conditions": "literature values; cited from earlier work"}, "[3]": {"experiment": "pH modulation assay of avidin and streptavidin on biotin-PE bilayers (turn on / turn off)", "format": "binding", "conditions": "1 μM protein", "source_text": "In addition to being able to detect negatively charged proteins, experiments have also been performed showing that our pH modulation assay can detect positively charged proteins. In this case, the sensor works as a “turn off” rather than as a “turn on” sensor. To investigate this, the binding of avidin, which is a positively charged macromolecule, was studied. The conditions were similar to those described above except where explicitly stated. Under all conditions, a saturation concentration of avidin or streptavidin was employed (1 μM). The bilayers each contained 1 mol % biotin-PE and 0.03 mol % ortho-Texas Red® DHPE.\nHowever, upon adding 20 mol % DOPS (a negatively charged lipid) to the membrane, the assay was rerun at pH 9.25. Under these conditions, it detects avidin in a “turn off” mode and streptavidin in a “turn on” mode."}, "[4]": {"experiment": "pH titration of Texas Red DHPE isomers in supported lipid bilayers (fluorescence)", "format": "physicochemical", "method": "The peak heights from the ortho-conjugated Texas Red® data in FIG. 5 may be used to obtain a titration curve for this isomer. […] To obtain the y-axis, the peak height at pH 3 was set to 1.0, and all other peak heights are relative to this value.\npH Titration and Buffer Preparation. […] These pH values were chosen to locate the pKA value of ortho-Texas Red® DHPE. The pH could be adjusted to the desired value by the dropwise addition of HCl or NaOH. The pH was measured with a standard glass electrode setup. […] Titration curves for the dye molecules in SLBs were obtained by systematically changing the pH of the bulk solution in a stepwise fashion. Fresh buffer was continuously flowed over the surface until no further changes in fluorescence intensity could be observed. […] Fluorescent micrographs of SLBs were captured with a standard epifluorescence microscope setup (Nikon Eclipse E800).\nThe fluorescence titration curve of the Texas Red® DHPE dye molecules was monitored in SLBs containing two narrow, parallel lines of bilayers with distinct dye chemistries. […] The second line was identical, but contained para-Texas Red® DHPE instead of the ortho isomer. The surrounding lipid matrix was a 1:1:1 mixture of DOPC, DPPC, and cholesterol.\nIn this case, however, a saturation concentration of IgG (500 nM) was first introduced into the bulk solution. Moreover, all fluorescence measurements as a function of pH were performed in the presence of 500 nM bulk protein concentration to ensure that the surface remained saturated with protein.\nTitration Curves for ortho-Texas Red® DHPE. In a first set of experiments, the pH dependent responses of the ortho- and para-conjugated Texas Red® dyes were investigated in supported POPC bilayers with 0.5 mol % biotin-cap-PE. […] Bulk solutions at a given pH value were continuously flowed into the device until the fluorescence intensity remained constant. Fluorescence images at each pH value were then captured (FIG. 15a).\nTitration Curve with a Saturated Protein Layer. […] First, two separated bilayer strips were formed as described above. […] All subsequent measurements were made by tuning the solution pH value, but keeping the bulk IgG concentration constant."}, "[5]": {"conditions": "biotin/streptavidin binding, literature; cited from earlier work"}, "[6]": {"conditions": "pH 8.2, POPC, 1 mol % biotin-PE, 0.03 mol % ortho-Texas Red DHPE"}, "[7]": {"conditions": "pH 9.25, 20 mol % DOPS added to the membrane"}}, "note": "Read-outs that look alike come from different tables or passages of the source."}
{"molecule": "CN(C)c1ccc2c(-c3ccccc3C(=O)[O-])c3ccc(N(C)C)cc3[o+]c2c1", "note": "[TMR]", "values": [{"measurement": "σ01 (λ)", "setting": "[1]; 515 nm", "value": "13.3 (515 nm) 10^−17 cm^2"}, {"measurement": "τ0 (fluorescence lifetime)", "setting": "[1]", "value": 2.3, "unit": "ns"}, {"measurement": "φb (quantum yield of photobleaching)", "setting": "[1]", "value": "3.3 × 10^−7"}, {"measurement": "μ (mean number of survived excitation cycles)", "setting": "[1]", "value": "3 070 000"}]}
{"molecule": "Cc1cc(=O)[nH]c2cc(N)ccc12", "note": "[Carbostyril 124]", "values": [{"measurement": "σ01 (λ)", "setting": "[1]; 335 nm", "value": "6.3 (335 nm) 10^−17 cm^2"}, {"measurement": "τ0 (fluorescence lifetime)", "setting": "[1]", "value": 5.0, "unit": "ns"}, {"measurement": "φb (quantum yield of photobleaching)", "setting": "[1]", "value": "1.4 × 10^−3"}, {"measurement": "μ (mean number of survived excitation cycles)", "setting": "[1]", "value": 700}]}
{"molecule": "Cc1cc(=O)oc2cc(N)ccc12", "note": "[Coumarin 120]", "values": [{"measurement": "σ01 (λ)", "setting": "[1]; 365 nm", "value": "3.9 (365 nm) 10^−17 cm^2"}, {"measurement": "τ0 (fluorescence lifetime)", "setting": "[1]", "value": 5.0, "unit": "ns"}, {"measurement": "φb (quantum yield of photobleaching)", "setting": "[1]", "value": "3.4 × 10^−4"}, {"measurement": "μ (mean number of survived excitation cycles)", "setting": "[1]", "value": "3 000"}]}
{"molecule": "biotinylated bovine serum albumin: biotinylated bovine serum albumin (BSA)", "values": [{"measurement": "fluorescence intensity versus capillary without ligand", "setting": "avidin; 500 μM biotinylated BSA", "value": "approximately a factor of eight higher"}]}
{"molecule": "Rhodamine 123", "values": [{"measurement": "σ01 (λ)", "setting": "[1]; 515 nm", "value": "12.3 (515 nm) 10^−17 cm^2"}, {"measurement": "τ0 (fluorescence lifetime)", "setting": "[1]", "value": 4.0, "unit": "ns"}, {"measurement": "φb (quantum yield of photobleaching)", "setting": "[1]", "value": "6.4 × 10^−7"}, {"measurement": "μ (mean number of survived excitation cycles)", "setting": "[1]", "value": "1 570 000"}]}
{"molecule": "avidin: positively charged biotin-binding protein", "values": [{"measurement": "isoelectric point (pI)", "setting": "[2]", "value": 10.4}, {"measurement": "detection by the pH modulation assay", "setting": "[3]; [6]", "value": "turn off mode"}, {"measurement": "detection by the pH modulation assay", "setting": "[3]; [7]", "value": "turn off"}]}
{"molecule": "CCNc1cc2oc(=O)cc(C(F)(F)F)c2cc1C", "note": "[Coumarin 307]", "values": [{"measurement": "σ01 (λ)", "setting": "[1]; 397 nm", "value": "5.4 (397 nm) 10^−17 cm^2"}, {"measurement": "τ0 (fluorescence lifetime)", "setting": "[1]", "value": 4.5, "unit": "ns"}, {"measurement": "φb (quantum yield of photobleaching)", "setting": "[1]", "value": "1.5 × 10^−4"}, {"measurement": "μ (mean number of survived excitation cycles)", "setting": "[1]", "value": "6 500"}]}
{"molecule": "ortho-sulforhodamine 101-DHPE [ortho-Texas Red® DHPE]", "values": [{"measurement": "shift of apparent pKA to a more basic value", "setting": "[4]; 20 mol % DOPS added to the membranes, with respect to FIG. 15b", "value": 0.44, "unit": "pH units"}, {"measurement": "fluorescence intensity of the band as a function of bulk pH", "setting": "[4]; POPC bilayers with 0.5 mol % biotin-cap-PE, pH 10.2 to 4.0", "value": "showed higher intensity at more acidic pH values"}, {"measurement": "apparent pKA", "setting": "[4]; SLB containing 0.5 mol % biotin-cap-PE on glass, pH 10.2 to 4.0, ortho/para ratio, FIG. 15b", "value": "7.8±0.1"}, {"measurement": "apparent shift of titration curve midpoint", "setting": "[4]; saturated anti-biotin IgG layer (500 nM) versus no bound proteins", "value": "~0.35", "unit": "pH units"}, {"measurement": "pKA of the dye", "setting": "[4]; supported phospholipid bilayer, pH 3 to 11, FIG. 6", "value": 7.8}]}
{"molecule": "Cc1cc(=O)oc2c3c4c(cc12)CCCN4CCC3", "note": "[Coumarin 102]", "values": [{"measurement": "σ01 (λ)", "setting": "[1]; 397 nm", "value": "7.0 (397 nm) 10^−17 cm^2"}, {"measurement": "τ0 (fluorescence lifetime)", "setting": "[1]", "value": 5.5, "unit": "ns"}, {"measurement": "φb (quantum yield of photobleaching)", "setting": "[1]", "value": "4.3 × 10^−4"}, {"measurement": "μ (mean number of survived excitation cycles)", "setting": "[1]", "value": "2 300"}]}
{"molecule": "Coumarin 39", "values": [{"measurement": "τ0 (fluorescence lifetime)", "setting": "[1]", "value": 5.6, "unit": "ns"}, {"measurement": "φb (quantum yield of photobleaching)", "setting": "[1]", "value": "1.2 × 10^−3"}, {"measurement": "μ (mean number of survived excitation cycles)", "setting": "[1]", "value": 800}]}
{"molecule": "O=C(O)CCCC[C@@H]1SC[C@@H]2NC(=O)N[C@@H]21", "note": "[biotin]", "values": [{"measurement": "fluorescence intensity versus capillary without ligand", "setting": "avidin; 200 μM biotin", "value": "approximately a factor of five higher"}, {"measurement": "fluorescence difference between the two capillary tubes", "setting": "avidin; avidin conjugated with para-Texas Red succinimidyl ester (control), saturation biotin", "value": "little if any fluorescence difference"}]}
{"molecule": "streptavidin: negatively charged biotin-binding protein", "values": [{"measurement": "isoelectric point (pI)", "setting": "[2]", "value": 6.4}, {"measurement": "detection by the pH modulation assay", "setting": "[3]; [6]", "value": "does not detect"}, {"measurement": "detection by the pH modulation assay", "setting": "[3]; [7]", "value": "turn on"}, {"measurement": "Kd", "setting": "[5]", "value": "~1", "unit": "pM"}]}
